Experimental data reported in publication PMC2797226 (The Journal of Biological Chemistry, 2009).

Assays:
[1] = biological target: Kar2p (Saccharomyces cerevisiae, UniProt P16474); assay: proteinase K protection, SDS-PAGE; assay type: binding; details: 2 mM ADP; 5 mM MgCl2; pH 7.4; room temperature
[2] = biological target: T1, Lhs1p (Saccharomyces cerevisiae, UniProt P36016); assay: biochemical
T1 sequence (P36016 21-881): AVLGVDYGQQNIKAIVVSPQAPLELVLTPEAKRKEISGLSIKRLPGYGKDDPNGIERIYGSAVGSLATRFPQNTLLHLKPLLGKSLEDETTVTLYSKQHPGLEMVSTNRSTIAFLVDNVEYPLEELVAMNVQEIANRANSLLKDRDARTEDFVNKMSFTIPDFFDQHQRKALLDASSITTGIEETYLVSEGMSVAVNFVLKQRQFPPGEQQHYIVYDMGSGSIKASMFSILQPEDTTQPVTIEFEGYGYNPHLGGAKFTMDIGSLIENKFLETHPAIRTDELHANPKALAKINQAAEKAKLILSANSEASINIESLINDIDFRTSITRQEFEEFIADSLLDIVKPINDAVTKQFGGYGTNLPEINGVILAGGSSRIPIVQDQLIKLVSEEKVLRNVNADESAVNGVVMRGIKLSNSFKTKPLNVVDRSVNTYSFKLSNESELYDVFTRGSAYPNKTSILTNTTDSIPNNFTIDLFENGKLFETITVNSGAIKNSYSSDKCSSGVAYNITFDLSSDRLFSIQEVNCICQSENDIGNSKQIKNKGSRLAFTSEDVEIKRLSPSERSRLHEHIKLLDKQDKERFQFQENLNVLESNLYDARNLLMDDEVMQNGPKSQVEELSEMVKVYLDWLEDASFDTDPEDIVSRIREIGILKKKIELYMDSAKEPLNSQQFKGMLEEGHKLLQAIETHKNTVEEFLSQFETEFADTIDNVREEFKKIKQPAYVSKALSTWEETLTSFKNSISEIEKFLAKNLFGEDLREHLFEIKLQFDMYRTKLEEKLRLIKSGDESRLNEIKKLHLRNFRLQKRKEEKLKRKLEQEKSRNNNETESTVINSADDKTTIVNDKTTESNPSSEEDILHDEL

Chain of Kar2p (P16474 43-682): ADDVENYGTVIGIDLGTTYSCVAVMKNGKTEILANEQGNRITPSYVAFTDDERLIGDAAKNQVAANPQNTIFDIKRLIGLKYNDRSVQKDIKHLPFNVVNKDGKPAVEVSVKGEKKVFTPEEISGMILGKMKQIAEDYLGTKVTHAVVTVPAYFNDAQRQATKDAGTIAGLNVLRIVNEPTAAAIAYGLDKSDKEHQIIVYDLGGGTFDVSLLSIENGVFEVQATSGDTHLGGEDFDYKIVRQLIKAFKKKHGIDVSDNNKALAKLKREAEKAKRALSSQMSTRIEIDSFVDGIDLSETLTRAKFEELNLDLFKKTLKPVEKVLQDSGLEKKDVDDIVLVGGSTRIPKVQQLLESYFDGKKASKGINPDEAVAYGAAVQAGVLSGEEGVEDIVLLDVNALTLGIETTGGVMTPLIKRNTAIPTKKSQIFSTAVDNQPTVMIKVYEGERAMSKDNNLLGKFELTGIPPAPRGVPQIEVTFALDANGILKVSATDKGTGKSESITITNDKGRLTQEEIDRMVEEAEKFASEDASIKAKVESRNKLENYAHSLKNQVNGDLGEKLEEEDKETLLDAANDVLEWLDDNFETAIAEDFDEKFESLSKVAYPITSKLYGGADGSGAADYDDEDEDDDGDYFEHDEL

SMILES	proteinase K protection, SDS-PAGE [1]	Kd [2] [µM]
Nc1ncnc2c1ncn2[C@@H]1O[C@H](COP(=O)(O)OP(=O)(O)O)[C@@H](O)[C@H]1O [ADP]	ADP binding protects a ∼44-kDa NBD fragment	–
Nc1ncnc2c1ncn2[C@@H]1O[C@H](COP(=O)(O)OP(=O)(O)OP(=O)(O)O)[C@@H](O)[C@H]1O [ATP]	–	13.6 ± 0.5
